Values of other authors, collected in patent publication US20060286181A1, “Diet supplements for causing fast weight loss, improving daytime energy, promoting nighttime relaxation and sleep, controlling appetite and/or increasing metabolism” (priority 2005, published 2006).
Where two headings read alike, the source gives them in different places. Blank lines part the entries; values can stand above or below the molecule they belong to.

How the values were obtained:
[1] = not given; remark: listed apart in the source
[2] = daily supplementation with moderate exercise, 8 weeks
[3] = 8 weeks, overweight subjects
[4] = not given; remark: listed apart in the source
[5] = meta-analysis of forty double-blind studies
[6] = in vivo
[7] = system: benzodiazepine binding site in the gamma-aminobutyric acid receptor type A (GABA(A))
diet-induced weight gain = conditions: mice
[8] = at least three clinical trials
[9] = not given; remark: listed apart in the source
fatty acid synthesis = conditions: rats
ATP:citrate lyase = target: T1, ATP:citrate lyase (Homo sapiens, UniProt P53396)
T1 sequence (P53396 1-1101): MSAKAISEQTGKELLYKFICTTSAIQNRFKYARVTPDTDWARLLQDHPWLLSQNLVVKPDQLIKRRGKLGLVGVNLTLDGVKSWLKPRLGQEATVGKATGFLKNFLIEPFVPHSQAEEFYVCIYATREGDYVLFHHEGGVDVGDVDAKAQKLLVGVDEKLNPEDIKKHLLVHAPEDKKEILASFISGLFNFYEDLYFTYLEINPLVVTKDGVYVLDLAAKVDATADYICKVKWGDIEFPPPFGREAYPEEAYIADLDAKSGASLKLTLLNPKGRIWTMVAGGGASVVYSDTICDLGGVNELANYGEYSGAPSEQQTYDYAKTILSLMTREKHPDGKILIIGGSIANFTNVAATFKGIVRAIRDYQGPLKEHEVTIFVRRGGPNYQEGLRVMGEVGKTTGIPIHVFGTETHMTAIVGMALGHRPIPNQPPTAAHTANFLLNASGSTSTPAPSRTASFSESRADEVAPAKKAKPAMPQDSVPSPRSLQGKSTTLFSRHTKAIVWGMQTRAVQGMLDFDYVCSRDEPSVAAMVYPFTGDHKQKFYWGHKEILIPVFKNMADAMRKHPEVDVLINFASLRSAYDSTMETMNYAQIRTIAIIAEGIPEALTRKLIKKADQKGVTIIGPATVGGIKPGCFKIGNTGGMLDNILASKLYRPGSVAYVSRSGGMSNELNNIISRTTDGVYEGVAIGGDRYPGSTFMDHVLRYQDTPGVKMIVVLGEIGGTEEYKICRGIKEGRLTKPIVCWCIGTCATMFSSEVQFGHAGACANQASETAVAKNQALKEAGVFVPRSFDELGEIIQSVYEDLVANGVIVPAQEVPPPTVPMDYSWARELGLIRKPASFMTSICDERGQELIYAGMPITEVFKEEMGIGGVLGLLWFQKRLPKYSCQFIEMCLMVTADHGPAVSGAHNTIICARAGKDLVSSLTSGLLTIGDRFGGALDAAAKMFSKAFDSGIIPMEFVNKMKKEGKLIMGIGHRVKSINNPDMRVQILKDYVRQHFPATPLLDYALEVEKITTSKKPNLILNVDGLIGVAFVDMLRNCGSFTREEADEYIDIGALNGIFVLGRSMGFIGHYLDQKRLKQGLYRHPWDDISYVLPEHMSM

appetite = conditions: rats

Molecule: Phosphatidylserine
cortisol levels (clinical trials): lower cortisol levels
stress (clinical trials): reduce stress
exercise capacity (human, in vivo): increase exercise capacity
mood (human, in vivo): positively affect mood

Molecule: [Cr] [chromium, Chromium]
lean mass ([1]; clinical): increase lean mass
body fat ([1]; combined with exercise): reduce body fat
HDL cholesterol ([1]; in vivo): increase HDL
blood cholesterol profile [2]: improved blood cholesterol profile
weight loss ([2]; vs placebo group): increased weight loss

Molecule: Chromium Polynicotinate
muscle loss [3]: sparing muscle from loss
body fat ([3]; vs placebo group): significant loss of body fat
systolic blood pressure (Metabolic Syndrome; compared to control groups): effective in lowering systolic blood pressure
free radical damage in liver and kidney tissue (Metabolic Syndrome; compared to controls): less free radical damage

Molecule: Cn1c(=O)c2c(ncn2C)n(C)c1=O [caffeine, Caffeine]
basal metabolic rate ([4]; in vivo): increase the basal metabolic rate
weight loss ([4]; obese women): Significant weight loss
binding to and activation of adenosine receptors (adenosine receptors): binds to, but does not activate
physical endurance [5]: increase physical endurance

Molecule: O=c1cc(-c2ccc(O)cc2)oc2cc(O)cc(O)c12 [Apigenin]
memory and motor skills [6]: without impairing memory or motor skills
sedation and locomotor activity [6]: sedation and a reduction in locomotor activity
binding to benzodiazepine binding site of GABA(A) [7]: can bind

Molecule: COc1ccc2[nH]cc(CCNC(C)=O)c2c1 [Melatonin]
diet-induced weight gain (diet-induced weight gain): reduce diet-induced weight gain

Molecule: N[C@@H](Cc1c[nH]c2ccc(O)cc12)C(=O)O [Example 5-HTP, 5-hydroxy-L-tryptophan]
weight loss, safety and efficacy [8]: safely and effectively to aid in weight loss

inhibition of ATP:citrate lyase (ATP:citrate lyase): competitive inhibitor
Molecule: O=C(O)CC(O)(C(=O)O)C(O)C(=O)O (centres unmarked) [HCA, Hydroxycitric acid]
caloric intake ([9]; clinical studies): reduction caloric intake
safety ([9]; human clinical trials): demonstrated safety
levels of serotonin ([9]; human, in vivo): significantly increased
fat oxidation during exercise ([9]; untrained men and women): increasing fat oxidation
fatty acid synthesis (fatty acid synthesis): inhibit fatty acid synthesis
appetite (appetite): repress appetite
